According to paper PMC7144554, “2-(Arylamino)-6-(trifluoromethyl)nicotinic Acid Derivatives: New HIV-1 RT Dual Inhibitors Active on Viral Replication” (Molecules, 2020):
Values joined by “and” are separate entries in the source; they are usually repeats but may differ in a detail not shown here. Equal entries are not always repeated. Where two headings read alike, the source gives them in different places.

Tests used:
[1] = target: T1, Q475A RT RNase H function (Human immunodeficiency virus type 1 group M subtype B, UniProt P04585, Q1062A); assay: RNase H activity of mutated RT Q475A; format: biochemical, HIV-1; conditions: for RNase H Fold: vs wt RT
T1 construct: Amino acid substitutions were introduced into the p66 HIV-1 RT subunit coded in a p6HRT-prot plasmid; made in house; host or cells: Escherichia coli strain M15
Experimental: (§1) Amino acid substitutions were introduced into the p66 HIV-1 RT subunit coded in a p6HRT-prot plasmid using the QuikChange protocol (Agilent Technologies Inc., Santa Clara, CA).
(§2) The RT-associated RNase H activity of wt and mutated HIV RTs was measured as described, in 100 µL reaction volume containing 50 mM Tris HCl pH 7.8, 6 mM MgCl2, 1 mM dithiothreitol (DTT), 80 mM KCl, hybrid RNA/DNA (5’-[…]-3’-Fluorescein, 5’-[…]-3’-Dabcyl), and different amounts of enzymes according to a linear range of dose-response curve—20 ng of wt RT; 50 ng K103N RT; 100 ng V108A RT; 4 ng Y181C RT; 100 ng Q475A RT; 100 ng A502F RT. The reaction mixture was incubated for 1 h at 37 °C, the reaction was stopped by addition of EDTA and products were measured with a Victor 3 (Perkin) at 490/528 nm.

[2] = target: T2, HIV-1 RT-associated RNase H activity (wt RT) (Human immunodeficiency virus type 1 group M subtype B, UniProt P04585); assay: HIV-1 DNA polymerase-independent RNase H activity, wt RT; format: biochemical; conditions: for IC50: RNase H IC50, wt RT
T2 construct: RT is a heterodimeric (p66/p51) multifunctional enzyme; made in house; host or cells: Escherichia coli strain M15
Experimental: p6HRT-prot vector was kindly provided by Dr. Stuart Le Grice Laboratory. Heterodimeric RT was expressed essentially as described. Briefly, Escherichia coli strain M15 containing the p6HRT-prot vector were grown up to an OD600 of 0.7 and induced with isopropyl β-D-1-thiogalactopyranoside (IPTG) 1.7 mM for 4 h. Cell pellets were resuspended in Lysis buffer (50 mM sodium phosphate pH 7.8, 0.5 mg/mL lysozyme), incubated on ice for 20 min, added 0.3 M final NaCl, sonicated and centrifuged at 30,000× g for 1 h. The supernatant was loaded into a Ni^2+-sepharose column pre-equilibrated with loading buffer (50 mM sodium phosphate pH 7.8, 0.3 M NaCl, 10% glycerol, 10 mM imidazole) and washed thoroughly with wash buffer (50 mM sodium phosphate pH 6.0, 0.3 M NaCl, 10% glycerol, 80 mM imidazole). RT was gradient-eluted with elute buffer (wash buffer with 0.5 M imidazole). Fractions were collected, protein purity was checked by SDS-PAGE and found to be higher than 90%. RT containing fractions were pooled and diluted 1:1 with dilute buffer (50 mM sodium phosphate pH 7.0, 10% glycerol) then loaded into a Hi-trap Heparine HP GE (Healthcare Lifescience) pre-equilibrated with 10-column volume of loading buffer 2 (50 mM sodium phosphate pH 7.0, 10% glycerol, 150 mM NaCl). Column was then washed with loading buffer 2 and RT was gradient-eluted with elute buffer 2 (50 mM sodium phosphate pH 7.0, 10% glycerol, 150 mM NaCl). Fractions were collected, protein was dialyzed and stored in buffer containing 50 mM Tris HCl pH 7.0, 25 mM NaCl, 1 mM EDTA, 50% glycerol. Catalytic activities and protein concentration were determined. Enzyme-containing fractions were pooled and aliquots were stored at −80 °C.
as §2

[3] = target: T3, V108A RT RNase H function (Human immunodeficiency virus type 1 group M subtype B, UniProt P04585, V695A); assay: RNase H activity of mutated RT V108A; format: biochemical, HIV-1
T3 construct: Amino acid substitutions were introduced into the p66 HIV-1 RT subunit coded in a p6HRT-prot plasmid; made in house; host or cells: Escherichia coli strain M15
Experimental: as §1, §2

[4] = target: T4, A502F RT RNase H function (Human immunodeficiency virus type 1 group M subtype B, UniProt P04585, A1089F); assay: RNase H activity of mutated RT A502F; format: biochemical, HIV-1; conditions: for RNase H Fold: vs wt RT
T4 construct: Amino acid substitutions were introduced into the p66 HIV-1 RT subunit coded in a p6HRT-prot plasmid; made in house; host or cells: Escherichia coli strain M15
Experimental: as §1, §2

HIV-1 IIIB strain = assay: Antiviral assay, HIV-1 replication in TZMbl cells (luciferase); format: cell-based; conditions: Human immunodeficiency virus 1, TZM-bl; TZMbl cells, HIV-1 IIIB; read-out: HIV-1 EC50 TZMbl Cells
Experimental: Drug-mediated inhibition of virus-induced cytotoxicity was assayed in TZM-BL cells. […] Serial dilutions of drugs were added immediately after infection. Luciferase activity was measured as reported [67]. Two days after infection, the culture medium was removed from each well and 100 µl of Bright Glo reagent (Promega, Luis Obispo, CA) was added to the cells for measurement of luminescence using a Victor 2 luminometer (Perkin). […] Cell viability in CEM cells was quantified 5 days after infection with the MTT-dye reduction method.

CEM cells = assay: Cell viability in CEM cells (MTT); format: cell-based; conditions: highest concentration tested
Experimental: (§3) Drug-mediated inhibition of virus-induced cytotoxicity was assayed in TZM-BL cells. Triplicate wells of 96-well plates containing 1 × 10^4 TZMbl cells were infected with HIV-1 IIIB strain at a multiplicity of infection of 0.1. Serial dilutions of drugs were added immediately after infection. Luciferase activity was measured as reported. Two days after infection, the culture medium was removed from each well and 100 µl of Bright Glo reagent (Promega, Luis Obispo, CA) was added to the cells for measurement of luminescence using a Victor 2 luminometer (Perkin). The 50% effective concentration (EC50) was defined as the concentration that caused a 50% reduction of luciferase activity (relative light units) compared to virus control wells. Cell viability in CEM cells was quantified 5 days after infection with the MTT-dye reduction method.

[5] = Cell viability in CEM cells (MTT); format: cell-based; conditions: human, MTT, 5 days
Experimental: as §3

[6] = Cytotoxicity in TZMbl cells; format: cell-based; conditions: human
TZMbl cells = assay: Cytotoxicity in TZMbl cells; format: cell-based; conditions: highest concentration tested
[7] = target: T5, HIV-1 RT-associated RDDP activity (wt RT) (Human immunodeficiency virus type 1 group M subtype B, UniProt P04585); assay: biochemical
T5 construct: RT is a heterodimeric (p66/p51) multifunctional enzyme; made in house; host or cells: Escherichia coli strain M15
Experimental: p6HRT-prot vector was kindly provided by Dr. Stuart Le Grice Laboratory. Heterodimeric RT was expressed essentially as described [42]. Briefly, Escherichia coli strain M15 containing the p6HRT-prot vector were grown up to an OD600 of 0.7 and induced with isopropyl β-D-1-thiogalactopyranoside (IPTG) 1.7 mM for 4 h. Cell pellets were resuspended in Lysis buffer (50 mM sodium phosphate pH 7.8, 0.5 mg/mL lysozyme), incubated on ice for 20 min, added 0.3 M final NaCl, sonicated and centrifuged at 30,000× g for 1 h. The supernatant was loaded into a Ni^2+-sepharose column pre-equilibrated with loading buffer (50 mM sodium phosphate pH 7.8, 0.3 M NaCl, 10% glycerol, 10 mM imidazole) and washed thoroughly with wash buffer (50 mM sodium phosphate pH 6.0, 0.3 M NaCl, 10% glycerol, 80 mM imidazole). RT was gradient-eluted with elute buffer (wash buffer with 0.5 M imidazole). Fractions were collected, protein purity was checked by SDS-PAGE and found to be higher than 90%. […] Catalytic activities and protein concentration were determined. […]
The HIV-1 RT-associated RDDP activity was measured as described [66]. […]

A502F RT RDDP activity = target: T6, A502F RT RDDP activity (Human immunodeficiency virus type 1 group M subtype B, UniProt P04585, A1089F); assay: biochemical; set-up: species or system HIV-1
T6 construct: Amino acid substitutions were introduced into the p66 HIV-1 RT subunit coded in a p6HRT-prot plasmid; made in house; host or cells: Escherichia coli strain M15
Experimental: (§4) The HIV-1 RT-associated RDDP activity was measured as described [66]. Briefly, in 25 µL volume containing 60 mM Tris-HCl pH 8.1, 8 mM MgCl2, 60 mM KCl, 13 mM DTT, poly(A)-oligo(dT), 100 µM dTTP, and 6 ng wt RT (or 21 ng K103N RT; 30 ng V108A RT; 1,5 ng Y181C RT; 21 ng Q475A RT; 15 ng A502F RT).

[8] = target: T7, K103N RT RNase H function (Human immunodeficiency virus type 1 group M subtype B, UniProt P04585, K690N); assay: RNase H activity of mutated RT K103N; format: biochemical, HIV-1
T7 construct: Amino acid substitutions were introduced into the p66 HIV-1 RT subunit coded in a p6HRT-prot plasmid; made in house; host or cells: Escherichia coli strain M15
Experimental: as §1, §2

K103N RT RDDP activity = target: T8, K103N RT RDDP activity (Human immunodeficiency virus type 1 group M subtype B, UniProt P04585, K690N); assay: biochemical; set-up: species or system HIV-1
T8 construct: Amino acid substitutions were introduced into the p66 HIV-1 RT subunit coded in a p6HRT-prot plasmid; made in house; host or cells: Escherichia coli strain M15
Experimental: as §4

Q475A RT RDDP activity = target: T9, Q475A RT RDDP activity (Human immunodeficiency virus type 1 group M subtype B, UniProt P04585, Q1062A); assay: biochemical; set-up: species or system HIV-1
T9 construct: Amino acid substitutions were introduced into the p66 HIV-1 RT subunit coded in a p6HRT-prot plasmid; made in house; host or cells: Escherichia coli strain M15
Experimental: as §4

Y181C RT RDDP activity = target: T10, Y181C RT RDDP activity (Human immunodeficiency virus type 1 group M subtype B, UniProt P04585, Y768C); assay: biochemical; set-up: species or system HIV-1
T10 construct: Amino acid substitutions were introduced into the p66 HIV-1 RT subunit coded in a p6HRT-prot plasmid; made in house; host or cells: Escherichia coli strain M15
Experimental: as §4

V108A RT RDDP activity = target: T11, V108A RT RDDP activity (Human immunodeficiency virus type 1 group M subtype B, UniProt P04585, V695A); assay: biochemical; set-up: species or system HIV-1
T11 construct: Amino acid substitutions were introduced into the p66 HIV-1 RT subunit coded in a p6HRT-prot plasmid; made in house; host or cells: Escherichia coli strain M15
Experimental: as §4

[9] = target: T12, Y181C RT RNase H function (Human immunodeficiency virus type 1 group M subtype B, UniProt P04585, Y768C); assay: RNase H activity of mutated RT Y181C; format: biochemical, HIV-1
T12 construct: Amino acid substitutions were introduced into the p66 HIV-1 RT subunit coded in a p6HRT-prot plasmid; made in house; host or cells: Escherichia coli strain M15
Experimental: as §1, §2

With CC(C)c1ccc(O)c(=O)c(O)c1 [BTP, beta-Thujaplicinol, reference compound] the IC50 [1] was 0.19 ± 0.03 µM, the “RNase H Fold” value ([1]; Q475A RT) was 1.0 and the “RNase H Fold” value ([2]; WT RT) was 1. The IC50 ([3]; read-out: RNase H IC50, V108A RT) was 0.34 ± 0.4 µM, the IC50 ([4]; A502F RT, read-out: RNase H IC50) was 0.17 ± 0.03 µM and the “RNase H Fold” value ([4]; A502F RT) was 0.9.

Work on Cc1ccc(Cl)cc1Nc1nc(C(F)(F)F)ccc1C(=O)Oc1cccc(O)c1 [Compound 17, 3-Hydroxyphenyl 2-((5-chloro-2-methylphenyl)amino)-6-(trifluoromethyl)nicotinate] yielded an EC50 (HIV-1 IIIB strain) of over 50 µM, an IC50 [2] of 26.6 ± 5.6 µM and a melting point of 188 to 190 °C. The “percentage of cells viability in presence of the highest concentration of inhibitor tested, CEM cells” value (from here on “percentage … of inhibitor tested, CEM cells”) (CEM cells) was 100%, the CC50 at 5 days [5] was over 50 µM and the CC50 [6] was over 50 µM. The “percentage of cells viability in presence of the highest concentration of inhibitor tested, TZMbl” value (“percentage … of inhibitor tested, TZMbl” below) (TZMbl cells) was 62%.

With COc1cc(OC)cc(OC(=O)c2ccc(C(F)(F)F)nc2Nc2cc(Cl)ccc2C)c1 [Compound 21] the IC50 [1] was over 100 µM, the “RNase H IC50” value ([1]; Q475A RT) was “completely lost its RNase H inhibitory efficacy” and the “RNase H Fold” value ([1]; Q475A RT) was over 6.8. The IC50 [7] was 16.1 ± 1.2 µM, the EC50 (HIV-1 IIIB strain) was 5 ± 0.8 µM and the IC50 [2] was 14 µM and 14.7 µM. For the same compound, the IC50 (A502F RT RDDP activity) was 8 ± 0.7 µM, the “RDDP Fold” value (A502F RT RDDP activity; A502F RT, IC50 mutated RT / IC50 wt RT) was 0.5 and the IC50 [8] was 53.9 ± 2.2 µM. The IC50 [3] was over 100 µM, the “RNase H IC50” value ([3]; V108A RT) was “completely lost its RNase H inhibitory efficacy” and the IC50 (K103N RT RDDP activity) was 16.5 ± 4.8 µM. For the same compound, the IC50 [4] was over 100 µM, the “RNase H IC50” value ([4]; A502F RT) was “completely lost its RNase H inhibitory efficacy” and the “RNase H Fold” value ([4]; A502F RT) was over 6.8. The IC50 (Q475A RT RDDP activity) was 17 ± 4.5 µM, the “percentage … of inhibitor tested, CEM cells” value (CEM cells) was 100% and the CC50 at 5 days [5] was over 50 µM. It also gave an IC50 (Y181C RT RDDP activity) of 22.5 ± 5.3 µM, an IC50 (V108A RT RDDP activity) of 82.8 ± 6.3 µM and an IC50 [9] of 11.9 ± 1.4 µM. The CC50 [6] was over 50 µM and the “percentage … of inhibitor tested, TZMbl” value (TZMbl cells) was 59%.

With COc1ccc(OC(=O)c2ccc(C(F)(F)F)nc2Nc2cc(Cl)ccc2C)cc1 [Compound 23] the EC50 (HIV-1 IIIB strain) was over 10 µM, the IC50 [2] was 11.6 ± 4.3 µM and the “percentage … of inhibitor tested, CEM cells” value (CEM cells) was 100%. For the same compound, the CC50 at 5 days [5] was over 50 µM, the CC50 [6] was over 50 µM and the “percentage … of inhibitor tested, TZMbl” value (TZMbl cells) was 70%.
